Assay results: US20030040486A1 (priority 2001, published 2003)

What was measured:
μ-opioid receptors = settings: Hao et al. 1997; cited from earlier work
male Sprague-Dawley rats [1] = assay: Rat hindpaw withdrawal latency (HWL) to mechanical stimulation, Randall Selitto Test; type: in vivo; settings: for HWL increase using mechanical stimulation: drug alone, intrathecal, FIGS. 2C and 2D; for % Changes of HWL to Mechanical Stimulation: intrathecal every 12 hrs: morphine 8 μg, nociceptin 10 nmol, or rotated every two days
male Sprague-Dawley rats [2] = assay: Rat hindpaw withdrawal latency (HWL) to thermal stimulation, hot-plate test; type: in vivo; settings: for HWL increase using thermal stimulation: drug alone, intrathecal, FIGS. 2A and 2B; for % Changes of HWL to Thermal Stimulation: intrathecal every 12 hrs: morphine 8 μg, nociceptin 10 nmol, or rotated every two days
male Sprague-Dawley rats [3] = assay: Development of tolerance in the rat HWL study (thermal and mechanical stimulation); type: in vivo; settings: for time to complete tolerance: intrathecal every 12 hrs, both hindpaws, thermal and mechanical HWL
[4] = intrathecal administration; Jhamandas et al. 1998; cited from earlier work

In the case of `CC(C)C[C@H](NC(=O)[C@H](CCCCN)NC(=O)[C@H](CCCN=C(N)N)NC(=O)[C@H](C)NC(=O)[C@H](CO)NC(=O)[C@H](CCCCN)NC(=O)[C@H](CCCN=C(N)N)NC(=O)[C@H](C)NC(=O)CNC(=O)[C@@H](NC(=O)[C@H](Cc1ccccc1)NC(=O)CNC(=O)CNC(=O)[C@@H](N)Cc1ccccc1)[C@@H](C)O)C(=O)N[C@@H](C)C(=O)N[C@@H](CC(N)=O)C(=O)N[C@@H](CCC(N)=O)C(=O)O` [Nociceptin, nociceptin], the “binding to μ-opioid receptors” value (μ-opioid receptors) is listed as “does not bind”, the “HWL increase using mechanical stimulation” value (male Sprague-Dawley rats [1]; day 1) is listed as 60-70% and the “% Changes of HWL to Mechanical Stimulation” value (male Sprague-Dawley rats [1]; day 1, left hindpaw) is listed as 69.90 ± 4.11%. For the same molecule, the “% Changes of HWL to Mechanical Stimulation” value (male Sprague-Dawley rats [1]; day 1, right hindpaw) was 61.26 ± 3.85%, the “% Changes of HWL to Mechanical Stimulation” value (male Sprague-Dawley rats [1]; day 2, left hindpaw) was 31.28 ± 5.03% and the “% Changes of HWL to Mechanical Stimulation” value (male Sprague-Dawley rats [1]; day 2, right hindpaw) was 30.79 ± 6.58%. The “% Changes of HWL to Mechanical Stimulation” value (male Sprague-Dawley rats [1]; day 3, left hindpaw) was 10.59 ± 0.93%, the “% Changes of HWL to Mechanical Stimulation” value (male Sprague-Dawley rats [1]; day 3, right hindpaw) was 10.08 ± 1.05% and the “% Changes of HWL to Mechanical Stimulation” value (male Sprague-Dawley rats [1]; day 4, left hindpaw) was −0.62 ± 1.45%. For the same molecule, the “% Changes of HWL to Mechanical Stimulation” value (male Sprague-Dawley rats [1]; day 4, right hindpaw) was −0.76 ± 2.32%, the “HWL increase using thermal stimulation” value (male Sprague-Dawley rats [2]; day 1) was “approximately 90%” and the “% Changes of HWL to Thermal Stimulation” value (male Sprague-Dawley rats [2]; day 1, left hindpaw) was 93.49 ± 3.77%. For the same molecule, the “% Changes of HWL to Thermal Stimulation” value (male Sprague-Dawley rats [2]; day 1, right hindpaw) was 90.42 ± 2.65%, the “% Changes of HWL to Thermal Stimulation” value (male Sprague-Dawley rats [2]; day 2, left hindpaw) was 39.91 ± 3.66% and the “% Changes of HWL to Thermal Stimulation” value (male Sprague-Dawley rats [2]; day 2, right hindpaw) was 43.02 ± 2.12%. For the same molecule, the “% Changes of HWL to Thermal Stimulation” value (male Sprague-Dawley rats [2]; day 3, left hindpaw) was 9.46 ± 2.31%, the “% Changes of HWL to Thermal Stimulation” value (male Sprague-Dawley rats [2]; day 3, right hindpaw) was 12.01 ± 1.48% and the “% Changes of HWL to Thermal Stimulation” value (male Sprague-Dawley rats [2]; day 4, left hindpaw) was −2.18 ± 2.07%. The “% Changes of HWL to Thermal Stimulation” value (male Sprague-Dawley rats [2]; day 4, right hindpaw) was −3.67 ± 1.61%, the tolerance developed (male Sprague-Dawley rats [3]; by day 2, nociceptin alone group) was 50% and the “time to complete tolerance” value (male Sprague-Dawley rats [3]) was 4 days. For the same molecule, the “duration of the antinociceptive response evoked by intrathecal deltorphin” value [4] was “increase the duration”.

In the case of `CN1CC[C@]23c4c5ccc(O)c4O[C@H]2[C@@H](O)C=C[C@H]3[C@H]1C5` [Morphine, morphine], the “HWL increase using mechanical stimulation” value (male Sprague-Dawley rats [1]; day 1) is reported as about 55%, the “HWL increase using thermal stimulation” value (male Sprague-Dawley rats [2]; day 1) is reported as “approximately 67%” and the “time to complete tolerance” value (male Sprague-Dawley rats [3]) is reported as 6 days.
